Values joined by “and” are separate entries in the source; they are usually repeats but may differ in a detail not shown here. Identical values can stand only once. Like-named read-outs stand apart in the source and are kept apart here.
Columns and labels:
Dd2-CYTbQi = experiment: SYBR green growth assay, Dd2-CYTbQi mutant; format: cell-based, P. falciparum
Protocol: (§1) To eliminate overlapping mode of action with known targets, cross-resistance testing of representative TAPs against drug-resistant lines with well-characterized mutations in Pf dihydroorotate dehydrogenase, Pf heat-shock protein 90, Pf chloroquine resistance transporter[25] or Pf cytochrome b reduction site[26] was performed. […] Assays were carried out in 384-well format with three technical replicates within an assay day and biological replicates carried out on three different assay days to assign a final EC50.
(§2) A representative TAP (compound 6) was tested for its activity against a panel of P. falciparum strains known to harbour mutations conferring resistance to antimalarial agents under development. Artesunate and amodiaquine were included as additional control […]
(§3) Values are the means ± standard deviation derived from three independent assays performed

Dd2-PfCRT = experiment: SYBR green growth assay, Dd2-PfCRT mutant; format: cell-based, P. falciparum
Protocol: as §1, §2, §3

Dd2-DHODH = experiment: SYBR green growth assay, Dd2-DHODH mutant; format: cell-based, P. falciparum
Protocol: as §1, §2, §3

Dd2 [1] = experiment: SYBR green growth assay, Dd2 (parental); format: cell-based, P. falciparum; conditions: mean ± SD
Protocol: as §1, §2, §3

Dd2-HSP90 = experiment: microbe, parasite or virus in culture; format: cell-based, P. falciparum
Protocol: as §1, §2, §3

Dd2-6R F2 B5 = experiment: SYBR green growth assay, Dd2-6R F2 B5; conditions: for IC50: Plasmodium falciparum, DD2
Source text: (§6) The drug was then washed off and the parasites were allowed to recover in normal growth media.

Dd2-6R F4 D4 = experiment: SYBR green growth assay, Dd2-6R F4 D4; conditions: Plasmodium falciparum
Source text: as §6

Dd2-6R F4 G7 = experiment: SYBR green growth assay, Dd2-6R F4 G7; conditions: Plasmodium falciparum
Source text: as §6

Dd2-6R F2 D8 = experiment: SYBR green growth assay, Dd2-6R F2 D8; conditions: Plasmodium falciparum
Source text: as §6

Dd2-6R F2 C5 = experiment: SYBR green growth assay, Dd2-6R F2 C5; conditions: Plasmodium falciparum
Source text: as §6

Dd2 PfATP4 NITD609 = experiment: [3H]-hypoxanthine incorporation assay, Dd2 PfATP4 NITD609 resistant; format: cell-based; conditions: Plasmodium falciparum
Protocol: Supplementary Table 3: Compound 9 and 12 retain their activity against Pf strains harbouring mutations to novel antimalarial agents in clinical development. Compound 9 and 12 were tested for their antiplasmodial activity against a panel of Pf strains known to harbour mutations conferring resistance to novel agents under clinical development. Parasite growth inhibition is measured using the [3H]-hypoxanthine incorporation assay. IC50s are established for each strain (n ≥2) and compared to the IC50 of Dd2 (standard pan-resistant […]

Dd2 [2] = experiment: [3H]-hypoxanthine incorporation assay, Dd2; format: cell-based, Plasmodium falciparum; conditions: Plasmodium falciparum, DD2
Protocol: 9 and 12 were tested for their antiplasmodial activity against a panel of Pf strains known to harbour mutations conferring resistance to novel agents under clinical development. Parasite growth inhibition is measured using the [3H]-hypoxanthine incorporation assay. IC50s are established for each strain (n ≥2) and compared to the IC50 of Dd2 (standard pan-resistant

Pf NF54 = experiment: microbe, parasite or virus in culture; format: cell-based; conditions: Plasmodium falciparum
Source text: (§4) tested in duplicate from two independent experiments using a SYBR-Green based assay2.
(§5) (1 picture or pasted object on this page, not shown here)

Pf 7G8 = experiment: microbe, parasite or virus in culture; format: cell-based; conditions: Plasmodium falciparum
Source text: as §4, §5

Pf K1 = experiment: microbe, parasite or virus in culture; format: cell-based; conditions: Plasmodium falciparum
Source text: as §4, §5

Pf W2 = experiment: microbe, parasite or virus in culture; format: cell-based; conditions: Plasmodium falciparum
Source text: as §4, §5

Pf DD2 = experiment: microbe, parasite or virus in culture; format: cell-based; conditions: Plasmodium falciparum
Source text: as §4, §5

Pf SB1 = experiment: microbe, parasite or virus in culture; format: cell-based; conditions: Plasmodium falciparum
Source text: as §4, §5

[3] = target: T1, acetylcholine esterase (AChE) (Homo sapiens, UniProt P22303); experiment: AChE enzyme activity assay (CEREP); format: biochemical; conditions: read-out: AChE IC50
T1 construct: purchased CEREP, France (external assay service) 0363
T1 sequence (P22303 32-614): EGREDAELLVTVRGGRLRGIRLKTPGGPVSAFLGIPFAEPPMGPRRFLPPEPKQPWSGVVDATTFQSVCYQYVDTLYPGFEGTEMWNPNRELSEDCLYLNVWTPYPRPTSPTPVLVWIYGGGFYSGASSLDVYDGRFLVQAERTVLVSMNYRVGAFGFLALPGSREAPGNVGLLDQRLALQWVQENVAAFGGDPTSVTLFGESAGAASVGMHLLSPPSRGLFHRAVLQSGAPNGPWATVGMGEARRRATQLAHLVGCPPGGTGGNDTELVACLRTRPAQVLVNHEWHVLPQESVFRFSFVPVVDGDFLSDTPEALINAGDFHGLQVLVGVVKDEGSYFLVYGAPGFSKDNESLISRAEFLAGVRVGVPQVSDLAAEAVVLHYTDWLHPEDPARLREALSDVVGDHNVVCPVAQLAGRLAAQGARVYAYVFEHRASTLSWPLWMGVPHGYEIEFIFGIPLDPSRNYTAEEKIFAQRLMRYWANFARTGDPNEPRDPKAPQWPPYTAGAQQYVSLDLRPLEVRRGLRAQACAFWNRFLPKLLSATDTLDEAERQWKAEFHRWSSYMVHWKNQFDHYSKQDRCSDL
Protocol: An in vitro pharmacological profiling panel was specifically designed for the detection of potential high- risk clinical adverse drug reactions. The panel comprised of 26 diverse targets (6 enzymes, 2 transporters, 9 G-protein-coupled receptors (GPCRs), 5 ion channels along with hERG, M2, alpha1A and AchE) and was conduced externally by CEREP, France […]. […] Detailed methodology for in vitro pharmacological profiling assays provided by CEREP can be found at http://www.cerep.fr, with specific reference to the AChE (cat. no. 0363), Muscarinic M1 receptor (cat. no. 0091) and Adrenergic α1A receptor (cat. no. 2338) assays. For enzyme and kinase assays, the results were expressed as a percent inhibition of control-specific activity obtained in the presence of the test compound. The IC50 values (concentration causing a half-maximal inhibition of control-specific activity) and Hill coefficients (nH) were determined by nonlinear regression analysis of the inhibition/concentration–response curves using Hill equation curve fitting as described earlier.

hERG = target: T2, hERG (Homo sapiens, UniProt Q12809); experiment: electrophysiology-based hERG assay using IonWorks HT (CHO cells); format: cell-based; conditions: hERG IC50
T2 construct: expressed in transfected cells; host or cells: CHO cells
T2 sequence (Q12809 whole entry): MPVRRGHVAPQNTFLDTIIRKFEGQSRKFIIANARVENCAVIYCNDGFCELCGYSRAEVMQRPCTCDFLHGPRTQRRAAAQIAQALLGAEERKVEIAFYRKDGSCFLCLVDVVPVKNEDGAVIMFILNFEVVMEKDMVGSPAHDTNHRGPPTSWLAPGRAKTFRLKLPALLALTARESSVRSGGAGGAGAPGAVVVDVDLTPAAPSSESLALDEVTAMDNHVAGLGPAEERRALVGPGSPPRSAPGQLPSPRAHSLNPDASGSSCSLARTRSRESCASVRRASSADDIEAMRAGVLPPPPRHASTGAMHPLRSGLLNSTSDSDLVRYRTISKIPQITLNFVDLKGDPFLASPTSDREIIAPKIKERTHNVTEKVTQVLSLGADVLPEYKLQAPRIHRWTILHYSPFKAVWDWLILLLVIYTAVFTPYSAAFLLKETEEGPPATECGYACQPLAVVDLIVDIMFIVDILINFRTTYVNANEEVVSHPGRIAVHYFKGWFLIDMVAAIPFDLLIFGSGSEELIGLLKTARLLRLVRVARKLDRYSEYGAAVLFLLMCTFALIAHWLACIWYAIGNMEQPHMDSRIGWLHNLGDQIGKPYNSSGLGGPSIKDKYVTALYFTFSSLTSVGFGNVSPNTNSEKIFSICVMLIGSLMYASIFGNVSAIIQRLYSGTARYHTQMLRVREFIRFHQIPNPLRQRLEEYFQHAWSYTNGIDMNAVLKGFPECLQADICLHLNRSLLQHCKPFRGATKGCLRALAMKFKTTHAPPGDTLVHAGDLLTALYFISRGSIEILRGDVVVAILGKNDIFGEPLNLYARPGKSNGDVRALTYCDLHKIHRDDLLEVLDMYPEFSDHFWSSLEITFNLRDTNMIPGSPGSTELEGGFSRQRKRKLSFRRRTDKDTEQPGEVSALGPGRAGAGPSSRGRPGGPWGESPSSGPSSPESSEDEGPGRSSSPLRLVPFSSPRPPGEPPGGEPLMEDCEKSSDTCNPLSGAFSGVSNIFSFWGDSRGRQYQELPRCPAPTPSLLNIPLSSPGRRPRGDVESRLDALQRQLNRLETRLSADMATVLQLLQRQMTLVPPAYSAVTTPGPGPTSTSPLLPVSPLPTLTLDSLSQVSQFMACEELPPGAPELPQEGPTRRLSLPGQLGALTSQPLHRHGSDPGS
Protocol: hERG IC50 was determined in an electrophysiology-based hERG assay using IonWorks HT (CHO cells) as described earlier.

[4] = Plasmodium falciparum, DD2, Dd2, Supplementary Table 2
[5] = Plasmodium falciparum, DD2, Dd2 parental, Supplementary Table 13

## COC1=C2C[C@@H](C)C[C@H](OC)[C@H](O)[C@@H](C)/C=C(\C)[C@H](OC(N)=O)[C@@H](OC)/C=C\C=C(/C)C(=O)NC(=CC1=O)C2=O [Geldanamycin]
Dd2-CYTbQi; Plasmodium falciparum, DD2
  IC50: 169 ± 40 nM
Dd2-PfCRT; Plasmodium falciparum, DD2
  IC50: 204 ± 20 nM
Dd2-DHODH; Plasmodium falciparum, DD2
  IC50: 257 ± 40 nM
Dd2 [1]; [4]
  IC50: 176 ± 30 nM

## Cc1nc2c(C#N)cccc2n1-c1ccc(C(=O)NC2CC2)s1 [Genz-669178]
Dd2-CYTbQi; Dd2-CYTbQi, mean ± SD, read-out: IC50
  IC50: 9.94 ± 0.9 nM
Dd2-PfCRT; Dd2-PfCRT, mean ± SD, read-out: IC50
  IC50: 5.07 ± 4 nM
Dd2-DHODH; Dd2-DHODH, mean ± SD, read-out: IC50
  IC50: 76.8 ± 10 nM
Dd2 [1]; Dd2, Supplementary Table 2, read-out: IC50
  IC50: 5.79 ± 1 nM
Dd2-HSP90; Dd2-HSP90, mean ± SD, read-out: IC50
  IC50: 16.2 ± 2 nM

## CCCCN(CCCC)CC(O)c1cc(Cl)cc2c1-c1ccc(Cl)cc1/C2=C/c1ccc(Cl)cc1 (stereo not shown) [Lumefantrine]
Dd2-6R F2 B5
  IC50: 6.8 ± 2 nM
Dd2-6R F4 D4
  IC50: 6.4 ± 2.4 nM
Dd2-6R F4 G7
  IC50: 5.1 nM
Dd2-6R F2 D8
  IC50: 6 ± 1.7 nM
Dd2-6R F2 C5
  IC50: 5.7 ± 1 nM
Dd2 [1]; [5]
  IC50: 15.6 ± 4.8 nM

## OC(c1cc(C(F)(F)F)nc2c(C(F)(F)F)cccc12)C1CCCCN1 (stereo not shown) [Mefloquine]
Dd2-6R F2 B5
  IC50: 11.7 ± 2.6 nM
Dd2-6R F4 D4
  IC50: 11.7 nM
Dd2-6R F4 G7
  IC50: 10.7 nM
Dd2-6R F2 D8
  IC50: 12 nM
Dd2-6R F2 C5
  IC50: 12.1 nM
Dd2 [1]; [5]
  IC50: 30.1 ± 7.2 nM

## C[C@H]1Cc2c([nH]c3cc(Cl)c(F)cc23)[C@@]2(N1)C(=O)Nc1ccc(Cl)cc12 [NITD609, reference compound]
Dd2 PfATP4 NITD609
  IC50: 1.7 nM
Dd2 [2]
  IC50: 0.6 nM

## CCc1nc(N)nc(N)c1-c1ccc(Cl)cc1 [Pyrimethamine]
Pf NF54
  IC50: 28.3 ± 11 nM
Pf 7G8
  IC50: 10000 ± 1260 nM
Pf K1
  IC50: 8560 ± 1980 nM
Pf W2
  IC50: 15400 ± 2830 nM
Pf DD2
  IC50: 13800 ± 8620 nM
Pf SB1
  IC50: 10.8 ± 4 nM

## CNc1nc(Nc2ccc(OCC(F)(F)F)c(C)n2)ncc1N1CCN[C@H](C)C1 [compound 6]
Dd2-6R F2 B5
  IC50: 102 nM
Dd2-6R F2 B5; compound 6-resistant Dd2-6R clones (five clones)
  increase in IC50 compared with the parental Dd2 line: 3-6 fold and 3 fold
Dd2-CYTbQi; Plasmodium falciparum, DD2
  IC50: 25.7 ± 5 nM
Dd2-PfCRT; Plasmodium falciparum, DD2
  IC50: 18.9 ± 1 nM
Dd2-6R F4 D4
  IC50: 98.9 nM
Dd2-6R F4 G7
  IC50: 112 nM
Dd2-6R F2 D8
  IC50: 95.7 nM
Dd2-DHODH; Plasmodium falciparum, DD2
  IC50: 23.2 ± 5 nM
Dd2-6R F2 C5
  IC50: 96.3 nM
Dd2 [1]; [4]
  IC50: 29.5 ± 3 nM
Dd2 [1]; [5]
  IC50: 38.7 ± 1.1 nM
Dd2-HSP90; Plasmodium falciparum, DD2
  IC50: 27.9 ± 7 nM

## Cc1nc(Nc2ncc(N3CCN[C@H](C)C3)c(Nc3cc(C)n(C)n3)n2)ccc1F [compound 7, (R)-N4-(1,5-dimethyl-1H-pyrazol-3-yl)-N2-(5-fluoro-6-methylpyridin-2-yl)-5-(3-methylpiperazin-1-yl)pyrimidine-2,4-diamine]
[3]
  IC50: 66000 nM
hERG
  IC50: > 33000 nM

— article PMC4389225, “Triaminopyrimidine is a fast-killing and long-acting antimalarial clinical candidate” (Nature Communications, 2015)
